From ChEMBL document CHEMBL1773003
Active and inactive are the calls of the source. The calls are words filed in the database; no cut-off is given here.

Assays:
[1] = molecular target: Matrix protein 2 (Influenza A virus) (UniProt P06821); assay type: cell-based; conditions: Influenza A virus (A/udorn/1972(H3N2)); Oocyte; 100 uM
MDCK = experiment: Cytotoxicity against MDCK cells after 72 hrs by MTS assay; assay type: cell-based, Canis lupus familiaris; conditions: dog
Influenza A virus [2] = experiment: Antiviral activity against Influenza A virus (A/Udorn/72) expressing wild-type matrix protein 2 infected in MDCK cells assessed as inhibition of plaque formation at 5 uM measured after 2 days; assay type: functional, organism-based; conditions: Influenza A virus (A/udorn/1972(H3N2))
Influenza A virus [3] = experiment: Inhibition of Influenza A virus matrix protein 2; conditions: concentration not given here
Matrix protein 2 = Matrix protein 2 (Influenza A virus, UniProt P06821); assay type: cell-based, Influenza A virus (A/udorn/1972(H3N2)), Oocyte
[4] = Binding affinity to Influenza A virus (A/Udorn/72) transmembrane domain of matrix protein 2 (22 to 46) at pH 7.4 by circular dichroism analysis; set-up: species or system Influenza A virus (A/udorn/1972(H3N2))

Matrix protein 2, sequence (P06821 whole entry, the tested form may be a part): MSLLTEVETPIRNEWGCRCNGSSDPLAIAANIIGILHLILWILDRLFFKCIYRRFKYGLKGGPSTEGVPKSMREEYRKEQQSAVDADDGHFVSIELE
Matrix protein 2 (Influenza A virus), sequence (P06821 whole entry): as the sequence (P06821 whole entry, the tested form may be a part) above

Row | SMILES | inhibition [1] [%] | CC50 (MDCK) [µM] | Activity (Influenza A virus [2]) | inhibition (Influenza A virus [3]) [%] | IC50 (Matrix protein 2) [µM] | Kd [4] [µM]
1 | NCC12C3CCC4C3C3C(CCC31)C42 | 12.8 | 12 |  |  |  | 
2 | NC12CC3CC(CC(C3)C1)C2 [AMANTADINE] | 91 |  | Active | 85 |  | 
3 | C1=CC2C3C4C5C=CC4C24CNCC54C13 |  | > 500 |  |  | 33.5 | 74.9
4 | NC12C3CCC4C3C3C(CCC31)C42 | 4.8 | > 500 |  |  |  | 
5 | CNCC12CC3CC(CC1C3)C2 | 92.2 | < 19.4 | Active |  | 17.1 | 
6 | N=C(N)NCC12CC3CC(CC1C3)C2 | 97.2 |  | Active |  |  | 
7 | NC(N)=NCC12CC3CC(CC1C3)C2 |  | 10.5 |  |  | 2.4 | 
8 | C1C2C1C1C3C4C5C6CC6C4C14CNCC54C23 (stereo unspecified) | 86.5 | 61 | Active |  |  | 232
9 | C1CC2C3C4C5CCC4C24CNCC54C13 | 39.7 |  |  |  |  | 
10 | CCN(CC)C12C3CCC4C3C3C(CCC31)C42 | 0 | 119 |  |  |  | 
11 | CC12CC3CC1(C)CC3(N)C2 | 93.6 | > 500 | Active |  |  | 
12 | NCC12CC3CC(CC1C3)C2 | 97.1 | 357 | Active |  | 7.1 | 
13 | CC12CC3CC1(C)CC3(CN)C2 | 97.3 | 79 | Active |  | 7.2 | 
14 | NC12CC3CC(CC(C3)O1)C2 | 88.2 | > 500 |  |  | 29.2 | 91.6
15 | CNCC12C3CCC4C3C3C(CCC31)C42 | 14.7 | 224 |  |  |  | 
16 | CNC12CC3CC(CC(C3)O1)C2 | 91.7 | > 500 |  |  | 22.9 | 
17 | CC(N)C12CC3CC(CC1C3)C2 (racemic) | 93.2 | 256 | Active |  | 12.7 | 
18 | CC(=N)NC12C3CCC4C3C3C(CCC31)C42 | 9.3 | > 500 |  |  |  | 
